PubChem BioAssay (NCI)
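Exposure lasted 48 hours, with cells grown in 96-well plates and compounds tested at five concentrations. GI50 is the concentration that inhibits growth by half. At the TGI there is no net growth.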

Key:
Assay in all cases: DTP human tumour cell line panel, 48 h
MCF7 breast = system: MCF7 breast
NCI-H23 lung = system: NCI-H23 lung
UO-31 renal = system: UO-31 renal
CAKI-1 renal = system: CAKI-1 renal
MOLT-4 leukemia = system: MOLT-4 leukemia
CCRF-CEM leukemia = system: CCRF-CEM leukemia
IGROV1 ovarian = system: IGROV1 ovarian
SN12C renal = system: SN12C renal
SK-MEL-2 melanoma = system: SK-MEL-2 melanoma
HCC-2998 colon = system: HCC-2998 colon

| Structure (SMILES) | TGI (MCF7 breast) [µM] | TGI (NCI-H23 lung) [µM] | TGI (UO-31 renal) [µM] | TGI (CAKI-1 renal) [µM] | TGI (MOLT-4 leukemia) [µM] | TGI (CCRF-CEM leukemia) [µM] | TGI (IGROV1 ovarian) [µM] | TGI (SN12C renal) [µM] | TGI (SK-MEL-2 melanoma) [µM] | TGI (HCC-2998 colon) [µM] | GI50 (MCF7 breast) [µM] | GI50 (IGROV1 ovarian) [µM] | GI50 (SK-MEL-2 melanoma) [µM] | GI50 (NCI-H23 lung) [µM] | GI50 (UO-31 renal) [µM] | GI50 (CAKI-1 renal) [µM] | GI50 (MOLT-4 leukemia) [µM] | GI50 (CCRF-CEM leukemia) [µM] | GI50 (SN12C renal) [µM] | GI50 (HCC-2998 colon) [µM] |
| --- | --- | --- | --- | --- | --- | --- | --- | --- | --- | --- | --- | --- | --- | --- | --- | --- | --- | --- | --- | --- |
| CCc1oc2ccccc2c1C(=O)c1cc(Br)c(O)c(Br)c1 | 51.5 | 54.8 | 40.1 | > 100 | 59.7 | 55.4 | > 100 | 67.3 | 45.3 | – | – | – | – | – | – | – | – | – | – | – |
| CNS(=O)(=O)NN(C)S(=O)(=O)c1ccc(Br)cc1 | – | > 100 | > 100 | > 100 | > 100 | > 100 | > 100 | > 100 | > 100 | > 100 | – | – | – | – | – | – | – | – | – | – |
| COc1ccc(C(=O)/C=C/c2cc(C(=O)c3cc(OC)c(OC)c(OC)c3)ccc2OC)cc1 | > 100 | – | – | – | – | – | > 100 | – | > 100 | – | 3.05 | 8.82 | 6.04 | – | – | – | – | – | – | – |
| CC(C)(C)C(=O)C(c1ccc(-c2cscn2)cc1)c1ccc(-c2cscn2)cc1 | – | > 100 | > 81.9 | > 73.2 | > 100 | > 100 | > 100 | > 100 | 68.5 | > 100 | – | – | – | – | – | – | – | – | – | – |
| Nc1ncc(-c2ccc(C(F)(F)F)cc2)c(NC2CCCCCC2)n1 | > 100 | > 100 | > 100 | > 100 | 81.5 | 52.8 | > 100 | > 100 | – | > 100 | 27.5 | 19.5 | – | 20 | 13 | 20.9 | 23.3 | 15.4 | 29.4 | 48.5 |
| COc1cc2c(cc1OC)[C@@H](C(O)c1ccccc1)NCC2 (some centres not stated) | – | > 100 | > 100 | > 100 | > 100 | > 100 | > 100 | > 100 | > 100 | > 100 | – | – | – | – | – | – | – | – | – | – |
| Cc1nn2c(/C=C3/C(=O)Nc4ccccc43)c(-c3ccc(Cl)cc3)nc2s1 | > 50 | – | > 50 | > 50 | > 50 | > 50 | > 50 | – | > 50 | – | 17.1 | 39.1 | > 50 | – | > 50 | 13.3 | > 50 | 12.3 | – | – |
| CCCCC(=O)[O-].N.N.N.N.N.[Co+3].[O-][Cl+3]([O-])([O-])[O-] | – | > 100 | > 100 | – | > 100 | > 100 | > 100 | > 100 | > 100 | > 100 | – | > 100 | > 100 | > 100 | > 100 | – | > 100 | > 100 | > 100 | > 100 |
| Cl.Fc1c[c-]c(-c2ccccn2)c(F)c1.[Pt].c1ccc([PH+](CC[PH+](c2ccccc2)c2ccccc2)c2ccccc2)cc1 | 1.1 | – | 0.93 | 0.948 | 1.29 | – | – | – | 0.756 | – | 0.0625 | – | 0.233 | – | 0.254 | 0.246 | 0.291 | – | – | – |
| O=[N+]([O-])c1cc(Br)cc2c1[nH]c1ccc(Br)cc12 | > 100 | > 100 | 10.4 | 11.9 | – | – | 38.7 | > 100 | 41.5 | > 100 | 6.34 | 2.74 | 6.22 | 8.56 | 2.08 | 2.23 | – | – | 53.8 | 9.86 |
| CC(=O)OC[C@@H]1[C@H]2CC(=O)O[C@H]2C[C@H]1OC(C)=O | – | – | > 100 | > 100 | > 100 | > 100 | > 100 | > 100 | – | > 100 | – | – | – | – | – | – | – | – | – | – |
| O=C(Nc1nccs1)c1cc(C2=CC=CC([N+](=O)[O-])C=C2)nc(=S)[nH]1 (configuration not stated) | – | > 100 | > 100 | > 100 | > 100 | > 100 | > 100 | > 100 | > 100 | > 100 | – | – | – | – | – | – | – | – | – | – |
| Cc1c(C(=O)CC(=O)C(=O)Nc2cccc(C(F)(F)F)c2)[n+](=O)c2ccccc2n1[O-] | – | 40.5 | 30.2 | 21 | 7.56 | 7.24 | 9.34 | 11 | 18.5 | 16.1 | – | – | – | – | – | – | – | – | – | – |
| CCN(CC)C(=S)N/N=C(\C)c1ccccc1O | – | > 100 | 61.9 | 55.3 | > 100 | 78 | > 100 | > 100 | 80.7 | > 100 | – | – | – | – | – | – | – | – | – | – |
| CN(C)c1ccc(/C=C2\N=C(c3ccc(N)cc3)OC2=O)cc1 | – | > 100 | > 100 | > 100 | > 100 | > 100 | > 100 | > 100 | > 100 | > 100 | – | – | – | – | – | – | – | – | – | – |
| O=C(N/N=C/c1ccc(O)cc1O)c1ccc(Nc2ccnc(C(F)(F)F)c2)cc1 | > 100 | > 100 | > 100 | 1.8 | – | > 100 | > 100 | > 100 | > 100 | > 100 | – | 21.6 | > 59.1 | > 82.1 | > 24.3 | 0.0533 | – | 0.0913 | 24.4 | > 75.2 |
| Cc1nc(Nc2ccc(F)c(Cl)c2)sc1C(=O)O | 8.18 | – | 2.82 | 7.34 | – | > 100 | 5.03 | 3.56 | 3.8 | – | 1.53 | 1.63 | 1.97 | – | 1.16 | 1.9 | – | 3.01 | 1.53 | – |
| NC1CCC[C@@H](O)[C@H]1O (some centres not stated) | > 100 | > 100 | > 100 | > 100 | – | > 100 | > 100 | > 100 | > 100 | > 100 | – | – | – | – | – | – | – | – | – | – |
| CN(C)CCCn1c2c3ccccc3ccc2c2oc(=O)c3ccccc3c21 | – | 13.1 | 15.1 | 27.6 | 5.19 | > 21.3 | 23.5 | – | 21.1 | 2.46 | – | – | – | – | – | – | – | – | – | – |
